# Experimental data published in patent US7268152B2, “Glucocorticoid mimetics, methods of making them, pharmaceutical compositions, and uses thereof” (Boehringer Ingelheim Pharmaceuticals, Inc., priority 2002, dated 2007).
smiles,measurement,value
"COc1ccc(F)cc1C(C)(C)CC(O)(Cc1cc(C)cc(C)c1C#N)C(F)(F)F (stereo not shown) [Example 32, 2-[4-(5-fluoro-2-methoxyphenyl)-2-hydroxy-4-methyl-2-trifluoromethylpentyl]-4,6-dimethylbenzonitrile]",melting point,134 to 136 °C
